Laboratory results as given in paper PMC6348381, “Discovery of an MLLT1/3 YEATS Domain Chemical Probe” (Angewandte Chemie (International Ed. in English), 2018).

Assays:
CBP = biological target: T1, CBP (Homo sapiens, UniProt Q92793); assay: AlphaScreen selectivity screen, CBP; format: binding
T1 construct: made in house
Excerpt: (§1) IC50 (µM) IC50 (µM) IC50 (µM) IC50 (µM) (µM) (µM) (µM)
(§2) Supplementary Table 1. […]

FALZ = FALZ (Homo sapiens, UniProt Q12830); assay: AlphaScreen selectivity screen, FALZ; format: binding
Excerpt: as §1, §2

MLLT3 = biological target: T2, MLLT3 (Homo sapiens, UniProt P42568); assay: NanoBRET assay, full-length MLLT3-NanoLuc / histone H3.3-HaloTag in HEK293 cells; format: cell-based; conditions: 24 h
T2 construct: in full length MLLT3 N-terminal NanoLuc, Histone; host or cells: HEK293
T2 sequence (P42568 1-568): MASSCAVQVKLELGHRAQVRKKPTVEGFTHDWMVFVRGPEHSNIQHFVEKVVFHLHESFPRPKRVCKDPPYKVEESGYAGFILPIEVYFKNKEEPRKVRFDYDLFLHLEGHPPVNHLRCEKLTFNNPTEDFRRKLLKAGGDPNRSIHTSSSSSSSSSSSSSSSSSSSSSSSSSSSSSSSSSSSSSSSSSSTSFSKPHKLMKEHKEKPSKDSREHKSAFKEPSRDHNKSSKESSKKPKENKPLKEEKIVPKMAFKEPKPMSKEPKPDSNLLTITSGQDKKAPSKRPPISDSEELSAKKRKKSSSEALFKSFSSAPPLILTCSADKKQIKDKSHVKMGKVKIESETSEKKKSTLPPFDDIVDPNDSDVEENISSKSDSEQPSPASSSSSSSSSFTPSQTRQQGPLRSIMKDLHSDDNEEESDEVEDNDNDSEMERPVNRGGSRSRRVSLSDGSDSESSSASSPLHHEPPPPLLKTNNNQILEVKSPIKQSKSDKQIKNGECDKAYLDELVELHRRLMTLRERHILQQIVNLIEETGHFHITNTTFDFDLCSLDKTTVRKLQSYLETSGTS
Method: II.V NanoLuciferase Bioluminescent Resonance Energy Transfer (NanoBRET) Assay[2]
HEK293 cells ([…]) were plated in each well of a 6-well plate after 6 h cells were co-transfected with Histone H3.3-HaloTag (NM_002107) and a NanoLuciferase fusion of MLLT1 or MLLT3 (WT sequences from Promega HaloTag® human ORF in pFN21A) at a 1:500 and 1:10 (NanoLuc® to HaloTag®) ratio respectively with FuGENE HD transfection regent. Sixteen hours post-transfection, cells were collected and exchanged into media containing phenol red-free DMEM and 4% FBS in the absence (control sample) or the presence (experimental sample) of 100 nM NanoBRET 618 fluorescent ligand (Promega).
Cell density was adjusted to 2 x 10^5 cells/mL and then seeded 100 µL/well in a white 96-well plate (Corning Costar #3917). Compounds were then added directly to media (in the presence of SAHA 2.5 µM) at final concentrations 0.01-30 μM or an equivalent amount of DMSO as a vehicle control, and the plates were incubated for 24 h at 37 °C in the presence […]
NanoBRET Nano-Glo substrate (Promega) was added to both control and experimental samples at a final concentration of 10 µM. Readings were performed within 5 minutes using a ClarioSTAR (BMG labtech) equipped with LP 480 and 610 nm filters. A corrected BRET ratio was calculated and is defined as the ratio of the emission at 610 nm/[…] for experimental samples minus the emission at 6 10 nm/640 nm for control samples (not incubated with NanoBRET fluorescent ligand). BRET ratios are expressed as milliBRET units (mBU), where 1 mBU corresponds to the corrected BRET ratio multiplied by 1000.
3.3 C-terminal HaloTag in HEK293 cells. Treatment with SAHA (2.5 µM) alone increases MLLT3- […]
dependent manner. Mean±SD of BRET ratio (mBU), n=4 technical replicates.
(also on this page, place not known: 5) -well H3.3 -HaloTag pFN21A ) ( NanoLuc® H aloTag®) post -transfection, red -free Nano -Glo 10 5 6 10 6 10 l igand). cells . […]

[1] = Metabolic stability in primary human hepatocytes; format: in vitro ADME
Method: page 98: II.IX in vitro Metabolism Studies Metabolic stability studies were carried out exposing nominated compounds to samples of primary human hepatocytes . Compounds were analysed by LC -MS for loss of parent compound at 0, 10, 30, 60 and 120-minute time points and analysis of metabolites formed . […] 1000000 500000 0 0 min 10 min 30 min 60 min 120 min Supplementary Figure 8.

T1 sequence (Q92793 1085-1192 limits assumed): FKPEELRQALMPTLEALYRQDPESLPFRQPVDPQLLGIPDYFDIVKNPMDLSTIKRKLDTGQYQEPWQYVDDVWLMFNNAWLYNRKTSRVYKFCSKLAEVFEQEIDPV

In the case of `C[C@H]1CCCN1Cc1nc2cc(NC(=O)c3ccc4c(cnn4C)c3)ccc2[nH]1` [Compound 92], the “inhibition of CBP” value (CBP; 10 μM using AS) is reported as “no inhibition”, the IC50 (CBP; AlphaScreen selectivity screen) is reported as over 10 µM and the “inhibition of FALZ” value (FALZ; 10 μM using AS) is reported as “no inhibition”. For the same compound, the IC50 (FALZ; AlphaScreen selectivity screen) was over 10 µM, the IC50 (MLLT3; in the presence of 2.5 μM SAHA) was 0.4 ± 0.08 µM and the “MLLT3-Histone 3.3 interaction (mBU)” value (MLLT3; representative assay) was “can reduce this interaction”. For the same compound, the “parent remaining after 60 min” value ([1]; 60 min) was 48% and the half-life ([1]; human, read-out: metabolic stability t1/2) was 53 min.
